According to article PMC4184574, “Enantioselectivity in the cytochrome P450-dependent conversion of tegafur to 5-fluorouracil in human liver microsomes” (Pharmacology Research & Perspectives, 2013):
Entries after “also recorded” stand apart in the source; their conditions may differ. Where a name gives a salt, the structure may show the parent alone.

Experiments:
[1] = Enantioselective conversion of FT to 5-FU in human hepatic S9 with CYP and TPase inhibitors; assay type: in vitro ADME; settings: FT enantiomer 0.1 mmol/L, 1-aminobenzotriazole 1 mmol/L, TPI 10 μmol/L
Protocol: Insect microsomes expressing only NADPH-P450 oxidoreductase and cytochrome b5 were also used as control. These enzymes were stored at −80°C until use.
(§1) Metabolic reaction by S9 and cytosol (each 2 mg protein/mL) was carried out in 100 mmol/L phosphate (pH 7.4) because TPase requires phosphate ions for catalyzing the reaction. In some cases, insect microsomes expressing recombinant CYP isoforms (20 pmol/mL) were added to the incubation mixtures in either 50, 100 mmol/L phosphate (pH 7.4) or 100 mmol/L Tris (pH 7.4), depending on supplier's recommendation. Microsomal protein concentrations of all cDNA-expressed CYPs were adjusted to 0.5 mg protein/mL by adding control microsomes expressing NADPH-P450 oxidoreductase and cytochrome b5. The reaction for the assay of FT metabolism was initiated by adding the substrate, following preincubation for 5 min at 37°C. After incubation at 37°C, the reaction was stopped by adding three volumes of ice-cold acetonitrile. The incubation times of microsomes, cytosol, and S9 were 15, 15, and 30 min, respectively. After centrifugation, the supernatant was collected and stored at −80°C until the determination of 5-FU. Because a small portion of FT is nonenzymatically converted to 5-FU, the content of 5-FU spontaneously formed was subtracted from total yield obtained after incubation to correct the activity. The spontaneous degradation of FT to 5-FU was evaluated using enzymes inactivated by heating them at 100°C for 5 min.
The effects of inhibitors of CYP isoforms and TPase, and anti-CYP antibodies on 5-FU formation from FT enantiomers catalyzed by human hepatic preparations were evaluated. […] 1-Aminobenzotriazole (1 mmol/L) and TPI (10 μmol/L) were used as nonselective inhibitors of CYP isoforms and TPase, respectively. […] Inhibitors were dissolved in methanol and diluted with 100 mmol/L phosphate (pH 7.4) or 100 mmol/L Tris (pH 7.4) so that the final concentration of solvent in the incubation mixture was 0.5%. Methanol was also added to the control at the same concentration as the conditions with inhibitors. Inhibitory effects of anti-CYP antibodies were examined by preincubating microsomes with the antibodies for 10 min on ice. Each polyclonal anti-CYP antibody was used at a concentration ranging 10–40 μL/mg microsomal protein according to the procedure recommended by the supplier. The reaction was performed similarly as described above, except for evaluating the inhibitory effect of furafylline.
(§2) Concentration of 5-FU was determined using a LC/MS/MS system. […] For quantification of 5-FU, the calibration curves were linear over the range 2–1000 ng/mL. […]

[2] = Effects of CYP-selective inhibitors on 5-FU formation from FT enantiomers in pooled human hepatic microsomes; assay type: in vitro ADME; settings: pooled human hepatic microsomes; for effect on 5-FU formation from R-FT (in words): furafylline 25, quinidine 1, ketoconazole 1 μmol/L; for effect on 5-FU formation from S-FT (in words): furafylline 25, ticlopidine 20, quinidine 1, ketoconazole 1 μmol/L
Protocol: as §1
(§3) The effects of inhibitors of CYP isoforms and TPase, and anti-CYP antibodies on 5-FU formation from FT enantiomers catalyzed by human hepatic preparations were evaluated. In inhibition assays, FT enantiomers were used at the concentrations of 30 μmol/L. 1-Aminobenzotriazole (1 mmol/L) and TPI (10 μmol/L) were used as nonselective inhibitors of CYP isoforms and TPase, respectively. […] Inhibitors were dissolved in methanol and diluted with 100 mmol/L phosphate (pH 7.4) or 100 mmol/L Tris (pH 7.4) so that the final concentration of solvent in the incubation mixture was 0.5%. Methanol was also added to the control at the same concentration as the conditions with inhibitors. Inhibitory effects of anti-CYP antibodies were examined by preincubating microsomes with the antibodies for 10 min on ice. Each polyclonal anti-CYP antibody was used at a concentration ranging 10–40 μL/mg microsomal protein according to the procedure recommended by the supplier. The reaction was performed similarly as described above, except for evaluating the inhibitory effect of furafylline.
(§4) Concentration of 5-FU was determined using a LC/MS/MS system. The analytical system consisted of a HP1100 liquid chromatograph (Agilent Technologies, CA) coupled with an API4000 triple-quadrupole mass spectrometer (Applied Biosystems, CA) equipped with Turbo V source and ESI interface. Sample separation was performed using an Unison UK-Amino column (2.0 mm i.d. × 100 mm, 3 μm; Imtakt, Kyoto, Japan) at a flow rate of 0.2 mL/min at 40°C. The mobile phase consisted of 10 mmol/L ammonium acetate/acetonitrile 10:90 (v/v). […] For quantification of 5-FU, the calibration curves were linear over the range 2–1000 ng/mL.
(§5) For evaluating the effect of furafylline, the preincubation of microsomes with an inhibitor and an NADPH-generating system for 20 min was performed, followed by the enantioselective metabolic reaction. Opened and closed bars represent 5-FU formation rate from R- and S-FT, respectively.

[3] = system: CYP2A6 (tranylcypromine), CYP2E1 (diethyldithiocarbamate); CYP-mediated 5-FU formation from S-FT; test: as above; assay type: in vitro ADME; settings: human, pooled human liver microsomes, pH 7.4, probe S-FT (S-tegafur) 30 μmol/L, 5-FU formation
Protocol: as §1, §3, §4, §5

[4] = system: CYP2A6 (tranylcypromine), CYP2E1 (diethyldithiocarbamate); CYP-mediated 5-FU formation from R-FT; test: as above; assay type: in vitro ADME; settings: human, pooled human liver microsomes, pH 7.4, probe R-FT (R-tegafur) 30 μmol/L, 5-FU formation
Protocol: as §1, §3, §4, §5

[5] = system: recombinant human CYP2B6, 2C8, 2C9, 2D6, and 3A4; test: 5-FU formation from FT enantiomers by other cDNA-expressed CYP isoforms; assay type: in vitro ADME; settings: other isoforms than CYP1A2, 2A6, 2C19, 2E1; FT enantiomers 0.03 mmol/L; 20 pmol CYP/mL
Protocol: (pooled preparations from 20 donors; Kansas City, KS). […] Insect microsomes expressing only NADPH-P450 oxidoreductase and cytochrome b5 were also used as control. These enzymes were stored at −80°C until use.
5-FU formed from FT was subjected to extensive metabolism by dihydropyrimidine dehydrogenase (DPD) contaminating human hepatic preparations. Therefore, a potent DPD inhibitor, CDHP, was always added to avoid the unexpected loss of 5-FU (Ikeda et al. [2000]; Yamamiya et al. [2010]). Incubation mixture for hepatic microsomal metabolism contained FT, microsomes (1 mg protein/mL), 0.1 mmol/L CDHP, and an NADPH-generating system consisting of 1.3 mmol/L β-NADP^+, 3.3 mmol/L glucose-6-phosphate, 3.3 mmol/L magnesium chloride, and 0.4 units glucose-6-phosphate dehydrogenase in 100 mmol/L Tris (pH 7.4). Metabolic reaction by S9 and cytosol (each 2 mg protein/mL) was carried out in 100 mmol/L phosphate (pH 7.4) because TPase requires phosphate ions for catalyzing the reaction. […] The spontaneous degradation of FT to 5-FU was evaluated using enzymes inactivated by heating them at 100°C for 5 min.
as §2

[6] = set-up: method as in Damle et al. [2001]; settings: after oral administration; ref Damle et al. [2001]; cited from earlier work
[7] = target: T1, CYP2A6 (Homo sapiens, UniProt P11509); test: 5-FU formation from FT enantiomers by cDNA-expressed CYP2A6 (kinetics, velocity, RAF contribution); settings: CYP2A6; RAF method; 30 μmol/L
T1 sequence (P11509 1-494): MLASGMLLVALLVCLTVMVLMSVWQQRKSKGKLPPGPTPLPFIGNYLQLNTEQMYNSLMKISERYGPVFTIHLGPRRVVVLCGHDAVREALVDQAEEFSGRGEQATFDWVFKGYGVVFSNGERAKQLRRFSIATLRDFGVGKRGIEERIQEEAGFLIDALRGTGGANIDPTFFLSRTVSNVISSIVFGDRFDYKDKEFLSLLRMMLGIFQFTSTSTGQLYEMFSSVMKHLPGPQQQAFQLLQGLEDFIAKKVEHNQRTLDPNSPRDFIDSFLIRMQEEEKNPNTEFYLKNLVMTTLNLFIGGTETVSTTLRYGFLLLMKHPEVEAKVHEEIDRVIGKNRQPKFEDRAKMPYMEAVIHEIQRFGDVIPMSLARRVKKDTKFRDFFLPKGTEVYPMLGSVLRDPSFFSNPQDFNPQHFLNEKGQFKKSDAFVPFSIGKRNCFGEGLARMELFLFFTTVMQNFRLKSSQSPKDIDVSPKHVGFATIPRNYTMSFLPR
Text: Human hepatic 9000g supernatant (S9) and cytosolic fraction were purchased from XenoTech, LLC. (pooled preparations from 20 donors; Kansas City, KS). Human hepatic microsomes from five individuals (HG32, HH94, HH81, HH74, and HH31), a pooled preparation from 150 donors, and microsomes prepared from insect cell lines expressing CYP1A2, 2A6, 2B6, 2C8, 2C9, 2C19, 2D6, 2E1, and 3A4 were purchased from BD Gentest. Insect microsomes expressing only NADPH-P450 oxidoreductase and cytochrome b5 were also used as control. These enzymes were stored at −80°C until use.
as §1, §4
Kinetic studies were performed using microsomes from five human livers (HG32, HH94, HH81, HH74, and HH31), cDNA-expressed CYP isoforms, or pooled human hepatic cytosol. In determining kinetic parameters, FT concentration ranged from 0.03 to 10 mmol/L. All reactions were performed in a linear range of 5-FU formation with respect to protein or CYP concentrations and incubation time.
Intrinsic clearance (CLint) was calculated as a ratio of V/S where V and S were the metabolite formation rate and the concentration of a probe substrate for CYP isoform, respectively, when the substrate concentration was well below the Km value. The RAF for each CYP isoform was calculated according to equation (3) (Venkatakrishnan et al. [2000]). [drawing 3] (3) n = 1A2, 2A6, 2C19, or 2E1.
The contribution of CYPn to the metabolism of R- and S-FT at their concentration of 30 μmol/L was subsequently calculated using equation (4). [drawing 4] (4) VCYPn = 5-FU formation rate in cDNA-expressed CYPn.

SMILES: Nn1nnc2ccccc21 [1-aminobenzotriazole, 1-Aminobenzotriazole]
- effect on 5-FU formation from R-FT (in words) [1]: markedly reduced; also recorded: strong inhibitory effect
- effect on 5-FU formation from S-FT (in words) [1]: markedly reduced; also recorded: strong inhibitory effect

SMILES: Cc1nc2c([nH]1)c(=O)n(C)c(=O)n2Cc1ccco1 [furafylline]
- effect on 5-FU formation from R-FT (in words) ([2]; R-FT 30 μmol/L): no effect
- effect on 5-FU formation from S-FT (in words) ([2]; S-FT 30 μmol/L): no effect

SMILES: N[C@@H]1C[C@H]1c1ccccc1 (racemic) [tranylcypromine, tranylcypromine hydrochloride]
- inhibition at 15 min ([3]; pooled human hepatic microsomes, S-FT 30 μmol/L, tranylcypromine 5 μmol/L, diethyldithiocarbamate 100 μmol/L): ~90%
- inhibition at 15 min ([4]; pooled human hepatic microsomes, R-FT 30 μmol/L, tranylcypromine 5 μmol/L, diethyldithiocarbamate 100 μmol/L): ~90%

SMILES: O=c1[nH]c(=O)n(C2CCCO2)cc1F (centres unmarked) [FT, 5-fluoro-1-(2-tetrahydrofuryl)-2, 4 (1H, 3H)-pyrimidinedione, reference compound]
- activity for the enantioselective metabolism of FT (in words) [5]: negligible activity
- oral bioavailability [6]: approximately 100%
- CYP contribution [7]: over 85%

SMILES: CC(=O)N1CCN(c2ccc(OCC3COC(Cn4ccnc4)(c4ccc(Cl)cc4Cl)O3)cc2)CC1 (centres unmarked) [ketoconazole]
- effect on 5-FU formation from R-FT (in words) ([2]; R-FT 30 μmol/L): no effect
- effect on 5-FU formation from S-FT (in words) ([2]; S-FT 30 μmol/L): no effect

SMILES: CCN(CC)C(=S)S [diethyldithiocarbamate, sodium diethyldithiocarbamate]
- amount of 5-FU formed from R-FT, % of the control value ([2]; R-FT 30 μmol/L, diethyldithiocarbamate 100 μmol/L): 73 % of the control value
- amount of 5-FU formed from S-FT, % of the control value ([2]; S-FT 30 μmol/L, diethyldithiocarbamate 100 μmol/L): 64 % of the control value
- inhibition at 15 min [3]: 34%
- inhibition at 15 min [4]: 27%

SMILES: Cl.N=C1CCCN1Cc1[nH]c(=O)[nH]c(=O)c1Cl [TPI, 5-chloro-6-(2-iminopyrrolidin-1-yl) methyl-2, 4 (1H,3H)-pyrimidinedione hydrochloride]
- effect on 5-FU formation from R-FT (in words) [1]: only a minor effect; also recorded: only a slight effect
- effect on 5-FU formation from S-FT (in words) [1]: only a minor effect; also recorded: not observed
